Data from ChEMBL document CHEMBL1140322, “New pyrrolo[2,1-f]purine-2,4-dione and imidazo[2,1-f]purine-2,4-dione derivatives as potent and selective human A3 adenosine receptor antagonists” (J Med Chem, 2005).

Legend:
Adenosine receptor A2a = Adenosine receptor A2a (Homo sapiens, UniProt P29274); experiment: Inhibition of [3H]-ZM 241385 binding to human adenosine A2a receptor expressed in CHO cells; assay type: cell-based
Adenosine receptor A1 = molecular target: T1, Adenosine receptor A1 (Homo sapiens, UniProt P30542); experiment: Inhibition of [3H]DPCPX binding to human adenosine A1 receptor expressed in CHO cells; assay type: cell-based
T1 sequence (P30542 whole entry): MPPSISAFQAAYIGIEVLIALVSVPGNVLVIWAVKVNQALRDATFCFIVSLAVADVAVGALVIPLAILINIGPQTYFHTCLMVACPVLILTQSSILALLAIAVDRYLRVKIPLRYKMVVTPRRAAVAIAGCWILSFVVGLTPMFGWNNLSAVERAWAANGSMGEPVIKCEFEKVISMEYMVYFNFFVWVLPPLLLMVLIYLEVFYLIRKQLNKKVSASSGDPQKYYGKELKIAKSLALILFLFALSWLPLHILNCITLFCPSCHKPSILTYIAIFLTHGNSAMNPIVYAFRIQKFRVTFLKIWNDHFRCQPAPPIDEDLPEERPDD

Adenosine receptor A2b = molecular target: T2, Adenosine receptor A2b (Homo sapiens, UniProt P29275); experiment: Inhibition of 100 nM NECA-stimulated cAMP production in CHO cells expressing human adenosine A2B receptor; assay type: functional, cell-based
T2 sequence (P29275 whole entry): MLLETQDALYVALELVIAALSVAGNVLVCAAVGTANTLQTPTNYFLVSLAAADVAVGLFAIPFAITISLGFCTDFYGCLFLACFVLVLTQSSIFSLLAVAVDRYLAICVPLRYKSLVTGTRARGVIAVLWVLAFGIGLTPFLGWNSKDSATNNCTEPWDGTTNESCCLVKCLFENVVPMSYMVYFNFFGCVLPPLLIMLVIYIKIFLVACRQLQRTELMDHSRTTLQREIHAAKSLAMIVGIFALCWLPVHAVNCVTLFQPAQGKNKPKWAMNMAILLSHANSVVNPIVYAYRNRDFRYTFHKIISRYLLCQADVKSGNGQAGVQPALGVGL

[1] = molecular target: Adenosine receptors; A2a & A3 (Homo sapiens) (UniProt P0DMS8+P29274); experiment: Relative binding affinity for human adenosine A2a and A3 receptors; assay type: protein assay
[2] = molecular target: Adenosine receptors; A1 & A3 (Homo sapiens) (UniProt P30542+P0DMS8); experiment: Relative binding affinity for human adenosine A1 and A3 receptors; assay type: protein assay
Adenosine receptors; A1 & A3 (Homo sapiens), sequence (P0DMS8 whole entry, looked up, one chain of several): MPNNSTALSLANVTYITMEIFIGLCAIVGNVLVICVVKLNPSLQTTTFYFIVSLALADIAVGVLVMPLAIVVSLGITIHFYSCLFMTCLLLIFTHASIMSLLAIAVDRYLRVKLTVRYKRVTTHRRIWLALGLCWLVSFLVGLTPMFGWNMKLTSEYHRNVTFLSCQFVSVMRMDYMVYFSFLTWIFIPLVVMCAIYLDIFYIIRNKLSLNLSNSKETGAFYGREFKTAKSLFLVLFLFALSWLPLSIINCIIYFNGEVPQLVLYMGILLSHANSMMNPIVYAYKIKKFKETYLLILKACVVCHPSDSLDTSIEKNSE

[3] = molecular target: Adenosine receptors; A2b & A3 (Homo sapiens) (UniProt P29275+P0DMS8); experiment: Relative binding affinity for human adenosine A2b and A3 receptors; assay type: protein assay

Adenosine receptor A2a, sequence (P29274 whole entry): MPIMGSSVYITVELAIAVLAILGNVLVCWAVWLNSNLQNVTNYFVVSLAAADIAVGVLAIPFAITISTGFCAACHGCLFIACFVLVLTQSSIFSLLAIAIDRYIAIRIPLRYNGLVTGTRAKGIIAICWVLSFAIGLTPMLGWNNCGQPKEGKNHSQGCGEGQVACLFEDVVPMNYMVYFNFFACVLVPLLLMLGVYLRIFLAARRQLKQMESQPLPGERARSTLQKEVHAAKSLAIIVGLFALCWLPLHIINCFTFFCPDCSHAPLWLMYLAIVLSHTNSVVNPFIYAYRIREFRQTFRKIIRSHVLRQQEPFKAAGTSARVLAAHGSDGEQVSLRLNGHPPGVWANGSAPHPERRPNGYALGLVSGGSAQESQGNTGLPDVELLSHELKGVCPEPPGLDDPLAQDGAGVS

| Ki (Adenosine receptor A2a) [nM] | Ki (Adenosine receptor A1) [nM] | IC50 (Adenosine receptor A2b) [nM] | Selectivity [1] | Selectivity [2] | Selectivity [3] | SMILES |
| --- | --- | --- | --- | --- | --- | --- |
| > 1000 | > 1000 |  |  |  |  | CCCn1c(=O)c2c(nc3[nH]c(-c4ccc(-c5ccccc5)cc4)cn32)n(Cc2ccccc2)c1=O |
| > 1000 |  | > 1000 | > 32 | > 15 | > 32 | CCCn1c(=O)c2c(nc3[nH]c(C(C)C)cn32)n(Cc2ccccc2)c1=O |
| > 1000 | > 1000 | > 1000 | > 2 | > 2 |  | CCCn1c(=O)c2c(nc3[nH]c(C4CCCCC4)cn32)n(Cc2ccccc2)c1=O |
| > 1000 | > 1000 | > 1000 | > 17 | > 17 | > 17 | CCCn1c(=O)c2c(nc3[nH]c(CC)c(C)n32)n(Cc2ccccc2)c1=O |
| > 1000 | > 1000 | > 1000 | > 28 | > 28 | > 28 | CCCn1c(=O)c2c(nc3[nH]c(C)c(C)n32)n(Cc2ccccc2)c1=O |
| > 1000 |  | > 1000 | > 44 | 15 | > 44 | CCCn1c(=O)c2c(nc3[nH]c(C4CC4)cn32)n(Cc2ccccc2)c1=O |
| > 1000 | > 1000 |  | > 18 | > 18 |  | CCCn1c(=O)c2c(nc3[nH]c(-c4ccc(OC)cc4)cn32)n(Cc2ccccc2)c1=O |
|  |  | > 1000 |  |  |  | CCCn1c(=O)c2c(nc3n2CC(CC)=C3)n(Cc2ccccc2)c1=O |
| > 1000 | > 1000 |  | > 9 | > 9 |  | CCCn1c(=O)c2c(nc3[nH]c(-c4ccccc4)cn32)n(Cc2ccccc2)c1=O |
| > 1000 | > 1000 |  | > 45 | > 45 |  | CCCn1c(=O)c2c(nc3[nH]c(-c4ccc(F)cc4)cn32)n(Cc2ccccc2)c1=O |
| > 1000 | > 1000 |  | > 125 | > 125 | 50 | CCCn1c(=O)c2c(nc3n2CC(C)=C3)n(Cc2ccccc2)c1=O |
| > 1000 | > 1000 | > 1000 | > 67 | > 67 | > 67 | CCCn1c(=O)c2c(nc3[nH]c(CC)cn32)n(Cc2ccccc2)c1=O |
|  |  | > 1000 |  |  |  | CCCn1c(=O)c2c(nc3[nH]c(C)cn32)n(Cc2ccccc2)c1=O |
| > 1000 | > 1000 | > 1000 | > 13 | > 13 | > 13 | CCCn1c(=O)c2c(nc3n2C(C)C(C)=C3)n(Cc2ccccc2)c1=O (stereo not given) |
| > 1000 | > 1000 | > 1000 | > 10 | > 10 | > 10 | CCCn1c(=O)c2c(nc3[nH]c(C(C)(C)C)cn32)n(Cc2ccccc2)c1=O |
| > 1000 | > 1000 |  | > 5 | > 5 |  | CCCn1c(=O)c2c(nc3n2CC(c2ccccc2)=C3)n(Cc2ccccc2)c1=O |
